Experimental data published in US10179116B2, “Methods, compositions, and kits for treating pain and pruritis” (President and Fellows of Harvard College, priority 2006, dated 2019).

How the values were obtained:
[1] = tested on: sodium channel; assay: Voltage clamp of sodium channel current in small dorsal root ganglion neurons with eugenol (Example 2); format: cell-based
Description: Co-application of eugenol and QX-314 produces progressive block that can be complete after 7 minutes. Two examples are depicted, which are representative of 10 experiments with similar results.
We have also shown that eugenol (C10H12O2), an allyl chain-substituted guaiacol, 2-methoxy-4-(2-propenyl)phenol (active ingredient in oil of clove, and a non-pungent agonist of TRPV1 receptors) promotes entry of QX-314 into dorsal root ganglion neurons by activating TRPV1 channels. FIG. 5 depicts voltage clamp recordings of sodium channel current in small dorsal root ganglion neurons. […] Co-application of eugenol and QX-314 produces progressive block that can be complete after 7 minutes. Two examples are depicted, which are representative of 10 experiments with similar results. […] Thus, these experiments indicate that eugenol promotes entry of QX-314 into dorsal root ganglion neurons by activating TRPV1 channels.

[2] = Intraplantar injection, mechanical threshold for paw withdrawal (von Frey hairs); conditions: QX-314 10 μL of 2%, capsaicin 10 μg/10 μL (15 and 30 minutes), or together (15 minutes)
Description: (§4) We next examined if the combination of capsaicin and QX-314 can reduce pain behavior in vivo.
(§5) For intraplantar injections, rats were first habituated to handling and tests performed with the experimenter blind to the treatment. Intraplantar injections of vehicle (20% ethanol, 5% Tween 20 in saline, 10 μL) capsaicin (1 μg/μL), QX-314 (2%) or mixture of capsaicin and QX-314 into the left hindpaw were made and mechanical and thermal sensitivities determined using von Frey hairs and radiant heat respectively.

[3] = Sciatic nerve injection, motor function score and placing reflex
Description: (§1) Motor effects were scored according to a scale of 0 (no effect; normal gait and limb placement), 1 (limb movement but with abnormal limb placement and movement) or 2 (complete loss of limb movement). […] For co-application of QX-314 and capsaicin into the para-sciatic nerve region, we injected QX-314 first, followed 10 minutes later by capsaicin, with the idea that QX-314 would be present extracellularly and ready to enter TRPV1 channels as soon as they were activated.
(§2) For sciatic nerve injections, animals were first habituated to handling for 10 days. Lidocaine (0.2% or 2%, 100 μL); QX-314 (0.2%, 100 μL) alone; capsaicin (50 μg in 100 μL) alone, or QX-314 followed by capsaicin (10 minutes interval) were injected into the area of sciatic nerve below the hip joint. Mechanical and thermal thresholds were determined using von Frey filaments and radiant heat. […] Walking, climbing, walking on the rod and placing reflex were examined. […] All experiments were done with the experimenter blinded.

[4] = Sciatic nerve injection, thermal (radiant heat) response latency; format: in vivo, rat; conditions: QX-314 0.2%, 100 μL, capsaicin 0.5 μg/μL, 100 μL (for 30 min)
Description: as §1, §2

[5] = tested on: voltage-dependent sodium channels; assay: Whole-cell voltage clamp of sodium current in large capsaicin-insensitive DRG neurons; format: cell-based, rat; conditions: 10-minute application, n=10
Description: To test whether the ability of co-applied capsaicin and QX-314 to inhibit sodium current is selective for cells that express TRPV1 receptors, we also recorded from large DRG neurons (soma diameter >40 μm) (FIG. 1A, right). […] As for small diameter neurons, QX-314 applied alone had little or no effect on sodium current (current increased by 8±4% after a 10-minute application, n=10). Unlike small diameter neurons, capsaicin had no effect on sodium current in large diameter neurons (average increase by 3±2% after a 10-minute application, n=10).
(§3) Dorsal root ganglia from 6-8 week old Sprague-Dawley rats were removed and placed into […] containing 1% penicillin—streptomycin (Sigma), then treated for 90 minutes with 5 mg/ml collagenase, 1 mg/ml Dispase II (Roche, Indianapolis, Ind.) and for 7 minutes with 0.25% trypsin, followed by addition of 2.5% trypsin inhibitor. Cells were triturated in the presence of […] (50 U), centrifuged through 15% BSA (Sigma), resuspended in 1 ml Neurobasal medium (Sigma), 10 μM AraC, NGF (50 ng/ml) and GDNF (2 ng/ml) and plated onto poly-lysine (500 μg/ml) and laminin (5 mg/ml) coated 35 mm tissue culture dishes (Becton Dickinson) at 8000-9000 per well. Cultures were incubated at 37° C., 5% carbon dioxide. Recordings were made within 48 hours after plating. […]

[6] = tested on: voltage-dependent sodium channels; assay: Whole-cell voltage clamp of sodium current in small capsaicin-sensitive DRG neurons; format: cell-based, rat; conditions: n=25
Description: We recorded current through voltage-dependent sodium channels using whole-cell voltage clamp recordings from adult rat DRG neurons. To select for nociceptors, we recorded from small (24±5 μm; n=25) neurons and tested the neurons for the expression of TRPV1 receptors by a short (1-sec) application of 1 μM capsaicin. In 25/25 of small neurons tested, capsaicin produced a prolonged (10±3 sec) inward current (FIG. 1A, upper panel), consistent with the neurons being nociceptors. Sodium currents were elicited by depolarizing steps from a holding potential of −70 mV.
as §3

[7] = Sciatic nerve injection, mechanical threshold (von Frey filaments); format: in vivo, rat; conditions: QX-314 0.2%, 100 μL, capsaicin 0.5 μg/μL, 100 μL (for 30 min), or QX-314 then capsaicin, stiffest hair 57 g
Description: as §1, §2

[8] = Intraplantar injection, thermal (radiant heat) response latency; format: in vivo, rat; conditions: QX-314 at 30 min, capsaicin at 15 and 30 min, together at 2 hours, heat applied for 25 seconds
Description: Similar effects were seen examining sensitivity to a standardized noxious radiant heat stimulus. […] This effect remained for 4 hours after the injection (FIG. 3B).

[9] = tested on: small diameter DRG neurons; assay: Current clamp, action potential generation in small DRG neurons; format: cell-based, rat; conditions: QX-314 5 mM, capsaicin 1 μM, alone or co-applied
Description: We also examined the effect of co-applied QX-314 and capsaicin in current clamp using physiological internal and external solutions.
Current clamp recordings were made using the fast current clamp mode of the Axopatch 200A amplifier Pipette solution was 135 mM K gluconate; 2 mM MgCl2; 6 mM KCl; 10 mM HEPES; 5 mM Mg ATP; 0.5 mM Li2GTP; (pH=7.4 with KOH). External solution was 145 mM NaCl; 5 mM KCl; 1 mM MgCl2; 2 mM CaCl210 mM HEPES; 10 mM glucose; (pH adjusted to 7.4 with NaOH). Membrane potential was corrected for a liquid junction potential of −15 mV.
Command protocols were generated and data digitized using a Digidata 1200 A/D interface with pCLAMP 8.2 software (Axon Instruments, Union City, Calif.). Voltage-clamp current records were low pass filtered at 2 kHz and current clamp recordings at 10 kHz (−3 dB, 4 pole Bessel filter).
QX-314 (5 mM), capsaicin (1 μM or 500 nM), or their combination was applied using custom-designed multibarrel fast drug delivery system placed about 200-250 μm from the neuron. Solution exchange was complete in less than a second.

[10] = tested on: sodium current; assay: Sodium current with TRPA agonist mustard oil and QX-314 (Example 3); format: cell-based; conditions: MO alone, 50 μM
Description: MO alone reduces sodium current by 20-30% and reaches a plateau after approximately 3 minutes.

[11] = target: T1, TRPV1 receptors (Rattus norvegicus, UniProt O35433); assay: Capsaicin-evoked inward current in small DRG neurons (test for TRPV1 expression); format: cell-based; conditions: 1-sec application of 1 μM capsaicin
T1 construct: Dorsal root ganglia from 6-8 week old Sprague-Dawley rats were removed; endogenous in cells; host or cells: primary cultured DRG neurons from 6-8 week old Sprague-Dawley rats
Description: We recorded current through voltage-dependent sodium channels using whole-cell voltage clamp recordings from adult rat DRG neurons. To select for nociceptors, we recorded from small (24±5 μm; n=25) neurons and tested the neurons for the expression of TRPV1 receptors by a short (1-sec) application of 1 μM capsaicin. […] Sodium currents were elicited by depolarizing steps from a holding potential of −70 mV.
Dorsal root ganglia from 6-8 week old Sprague-Dawley rats were removed and placed into Dulbecco's Minimum Essential Medium containing 1% penicillin—streptomycin (Sigma), then treated for 90 minutes with 5 mg/ml collagenase, 1 mg/ml Dispase II (Roche, Indianapolis, Ind.) and for 7 minutes with 0.25% trypsin, followed by addition of 2.5% trypsin inhibitor. Cells were triturated in the presence of DNAase I inhibitor (50 U), centrifuged through 15% BSA (Sigma), resuspended in 1 ml Neurobasal medium (Sigma), 10 μM AraC, NGF (50 ng/ml) and GDNF (2 ng/ml) and plated onto poly-lysine (500 μg/ml) and laminin (5 mg/ml) coated 35 mm tissue culture dishes (Becton Dickinson) at 8000-9000 per well. Cultures were incubated at 37° C., 5% carbon dioxide. Recordings were made within 48 hours after plating.
(§6) Whole-cell voltage-clamp or current-clamp recordings were made using an Axopatch 200A amplifier (Axon Instruments, Union City, Calif.) and patch pipettes with resistances of 1-2 MΩ. […]

[12] = Intraplantar injection, spontaneous flinching; conditions: first 5 min after intraplantar injection
Description: as §4, §5

[13] = tested on: TRPV1 receptors; assay: Capsaicin-evoked inward current in large DRG neurons; format: cell-based, rat; conditions: soma diameter >40 μm; 10 of 10
Description: Dorsal root ganglia from 6-8 week old Sprague-Dawley rats were removed and placed into Dulbecco's Minimum Essential Medium containing 1% penicillin—streptomycin (Sigma), then treated for 90 minutes with 5 mg/ml collagenase, 1 mg/ml Dispase II (Roche, Indianapolis, Ind.) and for 7 minutes with 0.25% trypsin, followed by addition of 2.5% trypsin inhibitor. Cells were triturated in the presence of DNAase I inhibitor (50 U), centrifuged through 15% BSA (Sigma), resuspended in 1 ml Neurobasal medium (Sigma), 10 μM AraC, NGF (50 ng/ml) and GDNF (2 ng/ml) and plated onto poly-lysine (500 μg/ml) and laminin (5 mg/ml) coated 35 mm tissue culture dishes (Becton Dickinson) at 8000-9000 per well. Cultures were incubated at 37° C., 5% carbon dioxide. Recordings were made within 48 hours after plating. Average size of small neurons chosen as likely nociceptors was 23±6 μm (n=50) and that of large neurons was 48±8 μm (n=10).
as §6

T1 sequence (O35433 whole entry): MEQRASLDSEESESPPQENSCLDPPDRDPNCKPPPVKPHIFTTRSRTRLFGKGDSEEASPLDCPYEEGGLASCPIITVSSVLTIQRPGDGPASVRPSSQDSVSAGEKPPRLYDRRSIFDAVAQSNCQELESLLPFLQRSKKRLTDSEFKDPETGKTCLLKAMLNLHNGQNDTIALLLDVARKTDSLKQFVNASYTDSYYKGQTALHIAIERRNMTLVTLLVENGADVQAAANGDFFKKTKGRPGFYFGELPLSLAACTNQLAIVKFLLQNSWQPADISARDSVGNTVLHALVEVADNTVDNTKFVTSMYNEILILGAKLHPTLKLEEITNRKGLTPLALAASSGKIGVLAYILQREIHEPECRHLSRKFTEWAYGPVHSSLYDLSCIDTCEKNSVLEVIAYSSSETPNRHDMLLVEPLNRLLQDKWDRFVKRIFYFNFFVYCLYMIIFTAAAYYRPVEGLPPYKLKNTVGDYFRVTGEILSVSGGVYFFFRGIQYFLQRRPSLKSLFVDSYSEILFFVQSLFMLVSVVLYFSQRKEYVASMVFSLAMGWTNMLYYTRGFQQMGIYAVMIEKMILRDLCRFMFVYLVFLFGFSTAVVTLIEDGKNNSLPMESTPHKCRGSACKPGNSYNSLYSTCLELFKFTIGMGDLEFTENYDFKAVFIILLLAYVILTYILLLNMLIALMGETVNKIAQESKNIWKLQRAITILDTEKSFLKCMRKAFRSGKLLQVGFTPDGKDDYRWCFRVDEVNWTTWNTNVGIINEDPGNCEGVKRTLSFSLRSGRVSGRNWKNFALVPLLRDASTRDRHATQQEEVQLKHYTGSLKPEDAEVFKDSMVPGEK

## C=CCc1ccc(O)c(OC)c1 [eugenol, 2-methoxy-4-(2-propenyl)phenol]
[1]; eugenol alone
  inhibition of sodium current: 10-20%

## CC[N+](CC)(CC)CC(=O)Nc1c(C)cccc1C [QX-314]
[2]
  effect on mechanical threshold for withdrawal response: no significant effect
[3]; rat, in vivo
  effect on motor function: no effect on motor function
[4]
  effect on thermal response latency: no significant effect
[5]; QX-314 alone
  increase of sodium current: 8±4%
[6]; bath application of 5 mM QX-314 alone, 5-minute application
  decrease of sodium current: 3±0.5%
[7]
  effect on mechanical threshold: no significant effect
[8]
  effect on thermal response latency / reaction to noxious radiant heat: transiently reduced the thermal response latency
[1]; external application
  effect of external QX-314 alone on sodium channels: no effect
[9]
  effect on action potential: no effect

## C=CCN=C=S [MO]
[10]
  reduction of sodium current: 20-30%
  time to plateau of sodium current reduction: approximately 3 minutes

## COc1cc(CNC(=O)CCCC/C=C/C(C)C)ccc1O [capsaicin]
[2]
  effect on mechanical threshold for withdrawal response: significantly reduced the mechanical threshold
[3]; capsaicin alone 0.5 μg/μL, 100 μL, within 30 min after injection, scale 0-2
  mean motor score: 0.7±0.2
[3]; sciatic injection
  animals with sustained flexion of the injected limb: 4 out of the 6
  effect on placing reflex: unchanged
[4]
  effect on thermal response latency: reduced
[5]; capsaicin alone
  average increase of sodium current: 3±2%
[6]; capsaicin alone, 1 μM for 1-10 minutes
  inhibition of sodium current: 31±9%
[11]
  small neurons in which capsaicin produced inward current: 25/25
[11]; small neurons
  duration of prolonged inward current: 10 ± 3 s
[7]
  effect on mechanical threshold: reduced
[8]
  effect on thermal response latency / reaction to noxious radiant heat: reduced as expected the thermal response latency
[12]
  number of flinches: 40±6
[9]
  effect on action potential: reduced the action potential amplitude
[13]
  inward current elicited in large DRG neurons: did not elicit an inward current

## CCN(CC)CC(=O)Nc1c(C)cccc1C [lidocaine]
[3]; rat, in vivo
  duration of complete loss of placing reflex: at least 30 minutes
  effect on motor function: complete paralysis of the lower limb
  effect on placing reflex: complete loss of the tactile stimulus-evoked placing reflex
  time of full recovery of sensory and motor deficits: ≤ 45 min
[3]; rat, in vivo, 30 min
  mean motor score: 1.67±0.2
